{"source": "patent US20160045463A1", "about": "“USE OF METALLOPROTEASE INHIBITORS IN THE TREATMENT OF POLYCYSTIC LIVER DISEASES” (UNIVERSIDAD DE SALAMANCA, priority 2012, published 2016)", "origin": "cited, not measured here", "key": {"PCK rats": {"system": "PCK rats", "details": "cited from earlier work"}, "polycystic livers": {"system": "polycystic livers", "details": "ADPKD patients subjected to kidney transplant with polycystic livers; cited from earlier work"}}}
{"smiles": "C[C@@H](O)[C@@H]1NC(=O)[C@H](CCCCN)NC(=O)[C@@H](Cc2c[nH]c3ccccc23)NC(=O)[C@H](Cc2ccccc2)NC(=O)[C@@H](NC(=O)[C@H](N)Cc2ccccc2)CSSC[C@@H](C(=O)N[C@H](CO)[C@@H](C)O)NC1=O", "note": "[octreotide]", "values": [{"measurement": "liver cystogenesis", "setting": "PCK rats", "value": "inhibited"}]}
{"smiles": "C=CC[C@@H]1/C=C(\\C)C[C@H](C)C[C@H](OC)[C@H]2O[C@@](O)(C(=O)C(=O)N3CCCC[C@H]3C(=O)O[C@H](/C(C)=C/[C@@H]3CC[C@@H](O)[C@H](OC)C3)[C@H](C)[C@@H](O)CC1=O)[C@H](C)C[C@@H]2OC", "note": "[tacrolimus]", "values": [{"measurement": "volume of the liver", "setting": "polycystic livers", "value": "increased the volume of the liver"}]}
